Entries after “also recorded” stand apart in the source; their conditions may differ. Marks after values point to notes of the source that are not given here. Positions of bridges follow the written chain, without caps; N, C: chain ends. No end group written: not given here.
Assays:
[1] = tested on: rKv1.4; assay: TEVC inhibition, Kv1.4; format: cell-based, rat; design: unit not given here; conditions: 1 µM
Description: (§1) For the expression of Kv channels rat Kv1.1 (GenBank accession number: NM_173095 [88, 89]), rKv1.2 (NM_012970 [90, 91]), human Kv1.3 (NM_002232 [92, 93]), rKv1.4 (NM_012971 [94, 95]), rKv1.6 (NM_023954 [96, 97]), hKv2.1 (NM_004975 [98, 99]), hKv3.1 (NM_004976 [100, 101]), rKv4.2 (NM_031739 [102, 103]), hKv10.1 (NM_172362 [104, 105]), hERG1 [Kv11.1, (NM_000238 [106, 107])], and Shaker IR [from Drosophila melanogaster, (NM_167595 [108, 109])], Nav channels [rNav1.2 (NM_012647 [42, 110]), rNav1.4 (NM_013178 [111, 112]), hNav1.5 (NM_198056 [113, 114]), mNav1.6 (NM_001077499 [115, 116]), BgNav [from Blattella germanica, (DQ466887 [117, 118])] and the auxiliary subunits rβ1 (NM_001271045 [119, 120]), hβ1 (NM_001037 [121, 122]), and TipE [from D. melanogaster, (NM_079196 [109, 123])], and Cav channels hCav3.1 [124, 125], hCav3.2 [126, 127], and hCav3.3 [128, 129] in Xenopus oocytes, the linearized plasmids were transcribed using the T7 or SP6 mMESSAGEmMACHINE transcription kit (Ambion, Austin, TX, USA). Mature female animals were purchased from Nasco (Fort Atkinson, USA) and were housed in the Aquatic Facility (KU Leuven) in compliance with the regulations of the European Union (EU) concerning the welfare of laboratory animals as declared in Directive 2010/63/EU. The use of X. laevis oocytes was approved by the Animal Ethics Committee of the KU Leuven with the license number P186/2019. Stage V–VI oocytes were collected from anesthetized female X. laevis frog as previously described, with the frogs anesthetized by placement in 0.1% tricaine solution (amino benzoic acid ethyl ester; Merck, USA). Oocyte microinjection was performed using a microinjector (Drummond Scientifc®, USA), with a programmed cRNA injection volume of 4—50 nL, depending on the channel subtype. The oocytes were incubated in ND96 solution (96 mM NaCl, 2 mM KCl, 1.8 mM CaCl2, 2 mM MgCl2, and 5 mM HEPES, pH 7.4), supplemented with 50 mg/l gentamicin sulfate.
(§2) Electrophysiological measurements were performed at room temperature (18–22 °C) using the two-electrode voltage clamp (TEVC) technique. Data were obtained using a GeneClamp 500 amplifier (Axon Instruments, USA), and Clampex9 software (Axon Instruments), responsible for data acquisition and storage. Glass micropipettes were produced using glass capillaries (borosilicate WPI 1B120-6) and drawn in a WPI (World Precision Instruments, USA) manual stretcher. The bath and perfusion solutions were either the previously described ND96 (Nav and Kv channels) or calcium-free ND96 supplemented with 10 mM BaCl2 (Cav channels).
(§3) Whole-cell currents of oocytes were recorded 1 to 3 days after injection. Current and voltage electrodes were filled with 3 M KCl and their resistance was adjusted from 0.7 to 2.0 MΩ. Currents were sampled at 20 kHz (Nav channels) and 10 kHz (Kv and Cav channels) and filtered using a four-pole Bessel low-pass Bessel filter, at 1 kHz for sodium, and […] for potassium and calcium, except for the hERG ion channel, in which the currents were filtered at 1 kHz. Leak subtraction was performed using a -P/4 protocol. Kv1.x currents were evoked by 500 ms depolarizations to 0 mV followed by a 500-ms pulse to − 50 mV, from a holding potential of − 90 mV. Kv2.1, Kv3.1, and Kv4.2 currents were elicited by 500 ms pulses to + 20 mV from a holding potential of − 90 mV. Current traces of Kv10.1 were elicited by 2 s depolarization to 0 mV, from a holding potential of − 90 mV. Current traces of hERG1 channel were elicited by applying a + 40 mV prepulse for 2 s followed by a step of − 120 mV for 2 s. Sodium current traces were evoked by a 100 ms depolarization to 0 mV, from a holding potential of − 90 mV. The current–voltage (IV) relationships were determined by 100-ms step depolarizations between − 90 and + 40 mV, using 5 mV increments. […]

[2] = tested on: hKv2.1; assay: TEVC inhibition, Kv2.1; format: cell-based, human; design: unit not given here; conditions: 1 µM
Description: as §1, §2, §3

[3] = tested on: rKv1.6; assay: TEVC inhibition, Kv1.6; format: cell-based, rat; conditions: 1 µM
Description: as §1, §2, §3

[4] = tested on: hCav3.1; assay: TEVC inhibition, Cav3.1; format: cell-based, human; design: unit not given here; conditions: 1 µM
Description: as §1, §2, §3

[5] = tested on: rNav1.2; assay: TEVC current-voltage relationship (Vhalf), Nav1.2; format: cell-based, rat; design: Vhalf, toxin inactivation, Nav1.2 / Vhalf, toxin activation, Nav1.2: unit not given here; conditions: for Vhalf, toxin activation, Nav1.2 / Vhalf, toxin inactivation, Nav1.2: 1 µM
Description: as §1, §2, §3

[6] = tested on: rNav1.4; assay: TEVC current-voltage relationship (Vhalf), Nav1.4; format: cell-based, rat; design: Vhalf, toxin inactivation, Nav1.4 / Vhalf, toxin activation, Nav1.4: unit not given here; conditions: for Vhalf, toxin activation, Nav1.4 / Vhalf, toxin inactivation, Nav1.4: 1 µM
Description: as §1, §2, §3

[7] = tested on: BgNav; assay: TEVC current-voltage relationship (Vhalf), BgNav; format: cell-based, Blattella germanica; design: Vhalf, toxin inactivation, BgNav / Vhalf, toxin activation, BgNav: unit not given here; conditions: for Vhalf, toxin activation, BgNav / Vhalf, toxin inactivation, BgNav: 1 µM
Description: as §1, §2, §3

[8] = tested on: voltage-gated potassium channels (Kvs); assay: TEVC on panel of voltage-gated potassium channels; format: cell-based; conditions: 1 µM
Description: For the expression of Kv channels rat Kv1.1 (GenBank accession number: NM_173095 [88, 89]), rKv1.2 (NM_012970 [90, 91]), human Kv1.3 (NM_002232 [92, 93]), rKv1.4 (NM_012971 [94, 95]), rKv1.6 (NM_023954 [96, 97]), hKv2.1 (NM_004975 [98, 99]), hKv3.1 (NM_004976 [100, 101]), rKv4.2 (NM_031739 [102, 103]), hKv10.1 (NM_172362 [104, 105]), hERG1 [Kv11.1, (NM_000238 [106, 107])], and Shaker IR [from Drosophila melanogaster, (NM_167595 [108, 109])], Nav channels [rNav1.2 (NM_012647 [42, 110]), rNav1.4 (NM_013178 [111, 112]), hNav1.5 (NM_198056 [113, 114]), mNav1.6 (NM_001077499 [115, 116]), BgNav [from Blattella germanica, (DQ466887 [117, 118])] and the auxiliary subunits rβ1 (NM_001271045 [119, 120]), hβ1 (NM_001037 [121, 122]), and TipE [from D. melanogaster, (NM_079196 [109, 123])], and Cav channels hCav3.1 [124, 125], hCav3.2 [126, 127], and hCav3.3 [128, 129] in Xenopus oocytes, the linearized plasmids were transcribed using the T7 or SP6 mMESSAGEmMACHINE transcription kit (Ambion, Austin, TX, USA). […]
Whole-cell currents of oocytes were recorded 1 to 3 days after injection. […] The current–voltage (IV) relationships were determined by 100-ms step depolarizations between − 90 and + 40 mV, using 5 mV increments. […]

KRSCIRRFGRCDHRPNDCCYNSSCRCNLWGSNCRCQRMGLFQKWGK (disulfide 4-19, 11-24, 18-35, 26-33) [xib13]
Inhibition data, Kv1.4 ([1]; replicate 1): 0.0
Inhibition data, Kv1.4 ([1]; replicate 2): 0.0
Inhibition data, Kv1.4 ([1]; replicate 3): 0.0
Inhibition data, Kv1.4 ([1]; replicate 4): 0.0
Inhibition data, Kv2.1 ([2]; replicate 1): 0.0
Inhibition data, Kv2.1 ([2]; replicate 2): 0.0
Inhibition data, Kv2.1 ([2]; replicate 3): 0.0
Inhibition data, Kv2.1 ([2]; replicate 4): 0.0
Inhibition data, Kv1.6 ([3]; replicate 1): 81.2
Inhibition data, Kv1.6 ([3]; replicate 2): 87.8
Inhibition data, Kv1.6 ([3]; replicate 3): 79.9
Inhibition data, Cav3.1 ([4]; replicate 1): 0.0
Inhibition data, Cav3.1 ([4]; replicate 2): 0.0
Inhibition data, Cav3.1 ([4]; replicate 3): 0.0
Inhibition data, Cav3.1 ([4]; replicate 4): 0.0
Vhalf activation shift, Nav1.2 ([5]; 1 µM versus control (ND96)): 1.5 mV
Vhalf, toxin activation, Nav1.2 ([5]; replicate 1): -21.2222
Vhalf, toxin inactivation, Nav1.2 ([5]; replicate 1): -50.4402
Vhalf, toxin activation, Nav1.2 ([5]; replicate 2): -22.3496
Vhalf, toxin inactivation, Nav1.2 ([5]; replicate 2): -54.6262
Vhalf, toxin activation, Nav1.2 ([5]; replicate 3): -23.8888
Vhalf, toxin inactivation, Nav1.2 ([5]; replicate 3): -52.3347
Vhalf, toxin activation, Nav1.2 ([5]; replicate 4): -19.606
Vhalf, toxin inactivation, Nav1.2 ([5]; replicate 4): -52.7049
Vhalf activation shift, Nav1.4 ([6]; 1 µM versus control (ND96)): 3.4 mV
Vhalf, toxin activation, Nav1.4 ([6]; replicate 1): -16.1478
Vhalf, toxin inactivation, Nav1.4 ([6]; replicate 1): -45.0612
Vhalf, toxin activation, Nav1.4 ([6]; replicate 2): -15.8394
Vhalf, toxin inactivation, Nav1.4 ([6]; replicate 2): -52.747
Vhalf, toxin activation, Nav1.4 ([6]; replicate 3): -14.4257
Vhalf, toxin inactivation, Nav1.4 ([6]; replicate 3): -47.6866
Vhalf activation shift, BgNav ([7]; 1 µM versus control (ND96)): 7.7*** mV
Vhalf inactivation shift, BgNav ([7]; 1 µM versus control (ND96)): 0.2 mV
Vhalf, toxin activation, BgNav ([7]; replicate 1): -17.0858
Vhalf, toxin inactivation, BgNav ([7]; replicate 1): -50.0173
Vhalf, toxin activation, BgNav ([7]; replicate 2): -22.9798
Vhalf, toxin inactivation, BgNav ([7]; replicate 2): -54.2542
Vhalf, toxin activation, BgNav ([7]; replicate 3): -20.8319
Vhalf, toxin inactivation, BgNav ([7]; replicate 3): -48.9373
Vhalf, toxin activation, BgNav ([7]; replicate 4): -18.4734
Vhalf, toxin inactivation, BgNav ([7]; replicate 4): -48.3513
inhibition of voltage-gated potassium channels [8]: potent inhibition; also recorded: most significant inhibition rates

RLFCIRHHKYCGHRPKRCCSGLFCRCNTFGTNCRCQSKGALGKLI (disulfide 4-19, 11-24, 18-35, 26-33) [xib1]
Inhibition data, Kv1.4 ([1]; replicate 1): 0.0
Inhibition data, Kv1.4 ([1]; replicate 2): 0.0
Inhibition data, Kv1.4 ([1]; replicate 3): 0.0
Inhibition data, Kv1.4 ([1]; replicate 4): 0.0
Inhibition data, Kv2.1 ([2]; replicate 1): 0.0
Inhibition data, Kv2.1 ([2]; replicate 2): 0.0
Inhibition data, Kv2.1 ([2]; replicate 3): 0.0
Inhibition data, Kv2.1 ([2]; replicate 4): 0.0
Inhibition data, Kv1.6 ([3]; replicate 1): 80.8
Inhibition data, Kv1.6 ([3]; replicate 2): 59.7
Inhibition data, Kv1.6 ([3]; replicate 3): 81.8
Inhibition data, Kv1.6 ([3]; replicate 4): 80.2
Inhibition data, Cav3.1 ([4]; replicate 1): 0.0
Inhibition data, Cav3.1 ([4]; replicate 2): 0.0
Inhibition data, Cav3.1 ([4]; replicate 3): 0.0
Inhibition data, Cav3.1 ([4]; replicate 4): 0.0
Vhalf, toxin activation, Nav1.2 ([5]; replicate 1): -16.7542
Vhalf, toxin inactivation, Nav1.2 ([5]; replicate 1): -48.4729
Vhalf, toxin activation, Nav1.2 ([5]; replicate 2): -15.666
Vhalf, toxin inactivation, Nav1.2 ([5]; replicate 2): -54.2238
Vhalf, toxin activation, Nav1.2 ([5]; replicate 3): -21.743
Vhalf, toxin inactivation, Nav1.2 ([5]; replicate 3): -57.3333
Vhalf, toxin activation, Nav1.2 ([5]; replicate 4): -24.4632
Vhalf, toxin inactivation, Nav1.2 ([5]; replicate 4): -61.3134
Vhalf, toxin activation, Nav1.4 ([6]; replicate 1): -19.1826
Vhalf, toxin inactivation, Nav1.4 ([6]; replicate 1): -47.3987
Vhalf, toxin activation, Nav1.4 ([6]; replicate 2): -12.5775
Vhalf, toxin inactivation, Nav1.4 ([6]; replicate 2): -44.7262
Vhalf, toxin activation, Nav1.4 ([6]; replicate 3): -17.1419
Vhalf, toxin inactivation, Nav1.4 ([6]; replicate 3): -46.0496
Vhalf activation shift, BgNav ([7]; 1 µM versus control (ND96)): 2.1 mV
Vhalf, toxin activation, BgNav ([7]; replicate 1): -20.8516
Vhalf, toxin inactivation, BgNav ([7]; replicate 1): -45.0763
Vhalf, toxin activation, BgNav ([7]; replicate 2): -24.1418
Vhalf, toxin inactivation, BgNav ([7]; replicate 2): -46.3574
Vhalf, toxin activation, BgNav ([7]; replicate 3): -27.3818
Vhalf, toxin inactivation, BgNav ([7]; replicate 3): -51.0148
Vhalf, toxin activation, BgNav ([7]; replicate 4): -26.78
inhibition of voltage-gated potassium channels [8]: potent inhibition
